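96-well plates; 48 h exposure; 5 concentrations. Endpoints by linear interpolation between flanking doses. Not reached: highest tested concentration assigned. GI50 = concentration required for 50% inhibition of growth. The concentration for full growth arrest is given as TGI.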
Assays:
Test in all cases: inhibition of tumour cell growth, NCI panel, 48 h
[1] = system: COLO 205 colon
[2] = system: MALME-3M melanoma
[3] = system: NCI-H522 lung
[4] = system: M14 melanoma
[5] = system: TK-10 renal
[6] = system: T-47D breast
[7] = system: MCF7 breast
[8] = system: SK-OV-3 ovarian
[9] = system: SF-268 CNS
[10] = system: IGROV1 ovarian
[11] = system: ACHN renal
[12] = system: NCI-H23 lung
[13] = system: SK-MEL-5 melanoma
[14] = system: HOP-62 NSCLC
[15] = system: HL-60(TB) leukemia
[16] = system: CCRF-CEM leukemia
[17] = system: HCT-116 colon
[18] = system: 786-0 renal
[19] = system: UACC-257 melanoma
[20] = system: NCI-H226 lung
[21] = system: PC-3 prostate
[22] = system: LOX IMVI melanoma
[23] = system: OVCAR-3 ovarian
[24] = system: OVCAR-5 ovarian
[25] = system: UACC-62 melanoma
[26] = system: K-562 leukemia
[27] = system: OVCAR-8 ovarian
[28] = system: SR leukemia
[29] = system: A549 NSCLC
[30] = system: OVCAR-4 ovarian
[31] = system: DU-145 prostate
[32] = system: NCI/ADR-RES ovarian
[33] = system: RPMI-8226 leukemia
[34] = system: KM12 colon
[35] = system: SF-539 CNS
[36] = system: HT29 colon
[37] = system: UO-31 renal
[38] = system: MDA-MB-435
[39] = system: BT-549 breast
[40] = system: CAKI-1 renal
[41] = system: SK-MEL-2 melanoma
[42] = system: NCI-H460 lung
[43] = system: RXF 393 renal
[44] = system: HS 578T breast
[45] = system: HCC-2998 colon
[46] = system: SW-620 colon
[47] = system: EKVX NSCLC
[48] = system: SN12C renal
[49] = system: MOLT-4 leukemia
[50] = system: MDA-MB-231 breast
[51] = system: HOP-92 NSCLC
[52] = system: U251 CNS
[53] = system: SF-295 CNS
[54] = system: SNB-19 CNS
[55] = system: A498 renal
[56] = system: HCT-15 colon
[57] = system: SNB-75 CNS
[58] = system: SK-MEL-28 melanoma

`Cn1cc(-c2ccc3c(c2)ncn3-c2ccc(CC(=O)Nc3cc(C(C)(C)C)on3)cc2)cn1` gave a GI50 [1] of 1950 nM, a TGI [1] of 5240 nM and a GI50 [2] of 1290 nM. It also gave a TGI [2] of 12600 nM, a GI50 [3] of 2270 nM and a TGI [3] of 13900 nM. The GI50 [4] was 1100 nM, the TGI [4] was 10500 nM and the GI50 [5] was 671 nM. For the same compound, the TGI [5] was 3170 nM, the GI50 [6] was 683 nM and the TGI [6] was 25500 nM. For the same compound, the GI50 [7] was 1550 nM, the TGI [7] was > 52000 nM and the GI50 [8] was 1010 nM. The TGI [8] was 4330 nM, the GI50 [9] was 674 nM and the TGI [9] was > 46500 nM. It also gave a GI50 [10] of 235 nM, a TGI [10] of 1310 nM and a GI50 [11] of 405 nM. It also gave a TGI [11] of 10900 nM, a GI50 [12] of 1880 nM and a TGI [12] of 17200 nM. It also gave a GI50 [13] of 2500 nM, a TGI [13] of 15500 nM and a GI50 [14] of 1410 nM. It also gave a TGI [14] of 29400 nM, a GI50 [15] of 3330 nM and a TGI [15] of 9650 nM. The GI50 [16] was 3230 nM, the TGI [16] was > 100000 nM and the GI50 [17] was 1890 nM. The TGI [17] was 7430 nM, the GI50 [18] was 1480 nM and the TGI [18] was > 84600 nM. For the same compound, the GI50 [19] was 3180 nM, the TGI [19] was 53700 nM and the GI50 [20] was 173 nM. For the same compound, the TGI [20] was 3270 nM, the GI50 [21] was 2780 nM and the TGI [21] was > 74700 nM. The GI50 [22] was 732 nM, the TGI [22] was 4870 nM and the GI50 [23] was 2060 nM. The TGI [23] was > 39800 nM, the GI50 [24] was 1350 nM and the TGI [24] was > 27200 nM. It also gave a GI50 [25] of 1530 nM, a TGI [25] of 11600 nM and a GI50 [26] of 28.4 nM. For the same compound, the TGI [26] was > 100000 nM, the GI50 [27] was 3160 nM and the TGI [27] was > 43300 nM. It also gave a GI50 [28] of 1690 nM, a TGI [28] of 8490 nM and a GI50 [29] of 1490 nM. The TGI [29] was 8760 nM, the GI50 [30] was 501 nM and the TGI [30] was 19100 nM. It also gave a GI50 [31] of 1370 nM, a TGI [31] of 9490 nM and a GI50 [32] of 2230 nM. For the same compound, the TGI [32] was > 35100 nM, the GI50 [33] was 3350 nM and the TGI [33] was > 100000 nM. For the same compound, the TGI [34] was 14300 nM, the GI50 [35] was 175 nM and the TGI [35] was 1740 nM. For the same compound, the GI50 [36] was 2600 nM, the TGI [36] was > 36700 nM and the GI50 [37] was 224 nM. The TGI [37] was 2200 nM, the GI50 [38] was 2550 nM and the TGI [38] was > 100000 nM. The GI50 [39] was 1490 nM, the TGI [39] was 13200 nM and the GI50 [40] was 782 nM. For the same compound, the TGI [40] was 2430 nM, the GI50 [41] was 1990 nM and the TGI [41] was 5140 nM. The GI50 [42] was 2450 nM, the TGI [42] was > 37700 nM and the GI50 [43] was 173 nM. For the same compound, the TGI [43] was 908 nM, the GI50 [44] was 187 nM and the TGI [44] was 1460 nM. For the same compound, the GI50 [45] was 8040 nM, the TGI [45] was > 100000 nM and the GI50 [46] was 2440 nM. For the same compound, the TGI [46] was > 100000 nM, the GI50 [47] was 1750 nM and the TGI [47] was 31100 nM. For the same compound, the GI50 [48] was 379 nM, the TGI [48] was 8090 nM and the GI50 [49] was 1580 nM. The TGI [49] was > 100000 nM, the GI50 [50] was 1230 nM and the TGI [50] was 3600 nM. The GI50 [51] was 227 nM, the TGI [51] was 1420 nM and the GI50 [52] was 2930 nM. The TGI [52] was > 42700 nM, the GI50 [53] was 1260 nM and the TGI [53] was > 38800 nM. The GI50 [54] was 3500 nM, the TGI [54] was > 100000 nM and the GI50 [55] was 122 nM. For the same compound, the TGI [55] was 461 nM, the GI50 [56] was 1190 nM and the TGI [56] was > 40900 nM. For the same compound, the GI50 [57] was 474 nM, the TGI [57] was 2870 nM and the GI50 [58] was 2650 nM. For the same compound, the TGI [58] was > 100000 nM.

— PubChem BioAssay (NCI)
